Data set [1] can be described thus: Solubility in water and methanol. In kind it is physicochemical. The settings on record: sodium salt.
Data set [2] in a line: Stability in water and methanol solution. The format is physicochemical. The settings on record: sodium salt.
The subject of another data set is rat MCAO model. Briefly: Brain infarction volume and brain edema volume in rats with local brain ischemia (MCAO model). In kind it is in vivo, Wistar rats. The text has this:
Wistar rats (50% of rats is female and another 50% of rats is male); 5-bromo-2-(α-hydroxypentyl)benzoic acid sodium salt (BZP, in the form of amorphous form, crystal form A and crystal form B, prepared according to the present invention), prepared in double distilled water; […] is in the form of white powder, manufactured by Beijing Chemical Works.
Administration method: 5-bromo-2-(α-hydroxypentyl)benzoic acid sodium salt (BZP) was intravenously injected at one hour before MCAO, with the dosage of 12 mg/kg; 5-bromo-2-(α-hydroxypentyl)benzoic acid sodium salt (BZP) was used to intragastric administration at one hour before MCAO, with the dosage of 20 mg/kg. 2-(α-hydroxypentyl)benzoic acid potassium salt (NBP-K) was used as positive control, and its dosage (calculated in moles) is the same as that of 5-bromo-2-(α-hydroxypentyl)benzoic acid sodium salt, that is, the dosage of intravenous injection is 9.6 mg/kg, and the dosage of intragastric administration is 15.9 mg/kg.
Preparation of MCAO model: Establish a focal brain ischemia-reperfusion injury model by cerebral artery obstruction in rats with suture-occluded method. Rats were intraperitoneally injected with 10% chloral hydrate to anesthetize. Rats were fixed on back and the skin of neck center was incised. The left common carotid artery, external carotid artery, and internal carotid artery were subjected to blunt dissection. The pterygopalatine artery was ligated, only remaining cranial trunk of internal carotid artery; a prepared nylon rope (burning diameter 0.3 mm) was inserted via external carotid artery incision into the bifurcation of the […], and was pushed along the cranial direction of the internal carotid artery. […] This indicates one side of the middle cerebral artery occlusion model was completed. Sutured the incision, remained the end of nylon line out of the skin. For reperfusion, the nylon line was gently pulled out. If feel force of resistance, this indicates the end of nylon line has returned to the trunk of external carotid artery, thereby accomplishing reperfusion.
Determination of infarction volume: After being subjected to ischemia for 2 hours and reperfusion for 24 hours, the heads of rats were cut off. Forebrain was removed and cut into six pieces, each piece being 2 mm. The pieces were stained with TC, and incubated at 37° C. for 30 minutes. Normal issues were stained to be red, but the infarcted issues were stained to be white. Took photos with digital camera, and calculated the percentage of the infarcted area relative to the spherical area of brain by Photoshop.

The next data set has as its system Rat. Briefly: Sub-acute toxicity, rat.
Data set [3] in a line: Acute toxicity (LD50), rat. The conditions noted are these: in vivo.
The nature of data set [4]: Acute toxicity (LD50), mouse. The settings on record: in vivo.
The mark [5] stands for this setting: intragastric administration one hour before MCAO, BZP 20 mg/kg, NBP-K 15.9 mg/kg.
[6] abbreviates: intravenous injection one hour before MCAO, 12 mg/kg.
Setting [7] is: intragastric administration one hour before MCAO, BZP 20 mg/kg, NBP-K 15.9 mg/kg, sodium salt.
The mark [8] stands for this setting: intravenous injection one hour before MCAO, 12 mg/kg, sodium salt, 12 mg/kg.
The mark [9] stands for this setting: intravenous injection one hour before MCAO, BZP 12 mg/kg, NBP-K 9.6 mg/kg, ischemia 2 hours, reperfusion 24 hours, sodium salt.
The mark [10] stands for this setting: intravenous injection one hour before MCAO, BZP 12 mg/kg, NBP-K 9.6 mg/kg, sodium salt.

As for `CCCCC(O)c1ccc(Br)cc1C(=O)[O-].[Na+]` (mixture of isomers) [BZP (mixture), 5-bromo-2-(α-hydroxypentyl)benzoic acid sodium salt, reference compound], in data set [1], the “Solubility in methanol” value is on record as 1.58 g/mL and the “Solubility in water” value is given as 2.13 g/mL. Moreover, the “Stability” value in data set [2] (in methanol solution) is above 12 h. Further, the “Stability” value in data set [2] (in water) is above 12 h.
`CCCCC(O)c1ccccc1C(=O)[O-].[K+]` (stereo not drawn) [NBP-K, 2-(α-hydroxypentyl)benzoic acid potassium salt, reference compound]: the “Edema (%)” value in the data set on rat MCAO model (setting [5]) is on record as 11.04 ± 1.48^aa** %; with rat MCAO model (setting [6]) it was 12.38 ± 1.29%. Also, the “Infarction volume (%)” value is recorded as 22.28 ± 2.65^aa % in the data set with rat MCAO model (setting [5]) and 24.35 ± 4.32^aa % with rat MCAO model (intravenous injection one hour before MCAO, BZP 12 mg/kg, NBP-K 9.6 mg/kg, ischemia 2 hours, reperfusion 24 hours). For the same compound, the entries for the “Inhibition of edema (%)” value in the data set with rat MCAO model (setting [5]) and in the data set on rat MCAO model (setting [6]) were 42.65% and 9.37%, respectively. Moreover, the “Inhibition of infarction volume (%)” value was 58.3% with rat MCAO model (setting [5]) and 54.42% in the data set on rat MCAO model (intravenous injection one hour before MCAO, BZP 12 mg/kg, NBP-K 9.6 mg/kg). The results for the “Sub-acute” value with Rat (ig) and in the data set with Rat (iv) were above 20 mg/kg and above 12 mg/kg, respectively. Also, the LD50 (in general, the dose at which mortality reaches 50%) in data set [3] (iv) stood at 230 mg/kg; in data set [3] (po), 623 mg/kg; in data set [4] (iv), 303 mg/kg; in data set [4] (po), 880 mg/kg.
Regarding `CCCCC(O)c1ccc(Br)cc1C(=O)[O-].[Na+]` (stereo not drawn) [BZP (crystal form B), 5-bromo-2-(α-hydroxypentyl)benzoic acid sodium salt], the results for the “Edema (%)” value with rat MCAO model (setting [7]) and in the data set on rat MCAO model (setting [8]) were 2.87 ± 1.56^aa** % and 4.20 ± 2.03a %, respectively. Also, the “Infarction volume (%)” value is 7.13 ± 2.98^aa** % in the data set with rat MCAO model (setting [7]) and 4.76 ± 1.45 aa % in the data set with rat MCAO model (setting [9]). Further, the “Inhibition of edema (%)” value with rat MCAO model (setting [7]) stood at 85.09%; with rat MCAO model (setting [8]) it was 78.71%. For the same compound, the “Inhibition of infarction volume (%)” value worked out at 86.03% in the data set with rat MCAO model (setting [7]) and 91.09% with rat MCAO model (setting [10]). The “Solubility in methanol” value in data set [1] (listed as BZP (Form B)) stood at 1.63 g/mL. In data set [1] (listed as BZP (Form B)), the “Solubility in water” value is 2.43 g/mL. In addition, the “Stability” value is above 24 h in data set [2] (in methanol solution, listed as BZP (Form B)) and above 24 h in data set [2] (in water, listed as BZP (Form B)).
In the case of `CCCCC(O)c1ccc(Br)cc1C(=O)[O-].[Na+]` (stereo not drawn) [5-bromo-2-(α-hydroxypentyl)benzoic acid sodium salt], the “Activity compared with 2-(α-hydroxypentyl)benzoic acid potassium salt” value in the data set with rat MCAO model (at the same dosage, conclusion in words) is on record as “obviously better than 2-(α-hydroxypentyl)benzoic acid potassium salt”. In addition, the “Effect on brain tissue injury induced by obstruction of cerebral arteries” value with rat MCAO model (rats, conclusion in words) is “can obviously reduce brain tissue injury induced by obstruction of cerebral arteries”.
`CCCCC(O)c1ccc(Br)cc1C(=O)[O-].[Na+]` (stereo not drawn) [BZP (crystal form A), 5-bromo-2-(α-hydroxypentyl)benzoic acid sodium salt]: in the data set with rat MCAO model (setting [7]), the “Edema (%)” value is on record as 2.7 ± 1.30^aa** %, the “Infarction volume (%)” value is reported as 7.13 ± 2.98 aa %, the “Inhibition of edema (%)” value was 87.55% and the “Inhibition of infarction volume (%)” value turned out to be 86.65%. In the data set with rat MCAO model (setting [8]), the “Edema (%)” value is 3.24 ± 4.11^aa* % and the “Inhibition of edema (%)” value was 81.28%. Moreover, in the data set with rat MCAO model (setting [9]), the “Infarction volume (%)” value is 4.54 ± 1.73 aa %. Also, the “Inhibition of infarction volume (%)” value in the data set with rat MCAO model (setting [10]) amounted to 91.50%. In data set [1] (listed as BZP (Form A)), the “Solubility in methanol” value is given as 1.80 g/mL and the “Solubility in water” value was 2.36 g/mL. In addition, the “Stability” value in data set [2] (in methanol solution, listed as BZP (Form A)) was above 24 h. The “Stability” value in data set [2] (in water, listed as BZP (Form A)) was above 20 h.

(Values after US11148991B2, “5-bromo-2-(alpha-hydroxypentyl)benzoic acid sodium salts in different crystal forms, and preparation method thereof” (priority 2013, dated 2021).)
